This is an account of results in publication PMC8909127 (Frontiers in Microbiology, 2022).

The target in one assay is T1, ZO1 PDZ2 (Homo sapiens, UniProt Q07157).
T1 construct: ZO-1-2 (PDZ2; residues 184–264); His tag (N); made in house; host or cells: E. coli BL21 Star (DE3)
T1 sequence (Q07157 184-264): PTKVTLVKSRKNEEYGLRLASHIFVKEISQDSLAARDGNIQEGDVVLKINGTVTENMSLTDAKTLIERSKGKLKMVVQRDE
The assay can be described thus: Microscale thermophoresis, E PBM peptide vs ZO1 PDZ2. The assay is classed as binding.

Assay [1] addresses T2, MPP5 PDZ (Homo sapiens, UniProt Q8N3R9).
T2 construct: MPP5 (residues 238–336); GST (N, cleaved yes); made in house; host or cells: E. coli BL21 Star (DE3)
T2 sequence (Q8N3R9 238-336): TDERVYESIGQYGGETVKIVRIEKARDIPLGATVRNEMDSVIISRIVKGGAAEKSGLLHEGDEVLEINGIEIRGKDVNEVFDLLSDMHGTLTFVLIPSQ
The assay can be described thus: Microscale thermophoresis, E PBM peptide vs MPP5 PDZ. It counts as binding. (In MST a laser heats a spot of the sample, and binding alters the fluorescence response.)

For assay [2], the target named is T3, LNX2 PDZ2 (Homo sapiens, UniProt Q8N448).
T3 construct: LNX2-2 (PDZ2; residues 334–426); His tag (N, cleaved yes); made in house; host or cells: E. coli BL21 Star (DE3)
T3 sequence (Q8N448 334-426): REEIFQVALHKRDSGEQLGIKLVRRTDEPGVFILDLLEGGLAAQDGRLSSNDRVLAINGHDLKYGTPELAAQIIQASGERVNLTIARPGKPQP
The assay can be described thus: Microscale thermophoresis, E PBM peptide vs LNX2 PDZ2. It counts as binding.

For assay [3], the target named is T4, PARD3 PDZ3 (Homo sapiens, UniProt Q8TEW0).
T4 construct: PARDD3-3 (PDZ3; residues 582–685); His tag (N, cleaved yes); made in house; host or cells: E. coli BL21 Star (DE3)
T4 sequence (Q8TEW0 582-685): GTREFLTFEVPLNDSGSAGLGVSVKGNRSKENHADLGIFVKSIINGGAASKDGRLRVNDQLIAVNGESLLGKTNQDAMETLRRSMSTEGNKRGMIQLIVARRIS
The assay can be described thus: Microscale thermophoresis, E PBM peptide vs PARD3 PDZ3. The assay is classed as binding. To be noted: MST.

In assay [4] the target is T5, MLLT4 PDZ (Homo sapiens, UniProt P55196).
T5 construct: MLLT4; P55196; 1002-1095; His-MBP (N, cleaved yes); made in house; host or cells: E. coli BL21 Star (DE3)
T5 sequence (P55196 1002-1095): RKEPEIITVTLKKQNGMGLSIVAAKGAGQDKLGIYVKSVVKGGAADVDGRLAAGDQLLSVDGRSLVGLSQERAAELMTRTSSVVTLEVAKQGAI
The assay can be described thus: Microscale thermophoresis, E PBM peptide vs MLLT4 PDZ. The assay is classed as binding. To be noted: MST.

Assay [5] deals with T6, PARD3 PDZ3 (human, UniProt Q8TEW0 582-685).
T6 construct: third PDZ domain of human PARD3, residues 582-685, numbering of the full-length human protein; […]; Labelled on amines with RED-NHS dye for MST; also called PARDD3-3; not shown: His tag, N-terminal, cleaved
T6 sequence (Q8TEW0 582-685): as the sequence (Q8TEW0 582-685) above
The assay can be described thus: MST; […]; PBS tween 20 0.05%; room temperature; […]; duplicate. To be noted: both partners purified.

Assay [6] has as its target T7, MLLT4 PDZ (human, UniProt P55196 1002-1095).
T7 construct: PDZ domain of human MLLT4 (Afadin); the residues named in the structure (1014-1022, 1071) fit 1002-1095; also called Afadin PDZ; not shown: His tag, N-terminal, cleaved; MBP, N-terminal, cleaved
T7 sequence (looked up): T5 sequence (P55196 1002-1095)
Described as above. To be noted: both partners purified.

The target of a further assay is T8, ZO-1 PDZ2 (human, UniProt Q07157 184-264).
T8 construct: second PDZ domain of human ZO-1 (TJP1), residues 184-264, numbering of the full-length human protein; […]; Labelled on amines with RED-NHS dye for MST; also called TJP1 PDZ2; ZO-1-2
T8 sequence (looked up): T1 sequence (Q07157 184-264)
Described as above. To be noted: both partners purified.

Assay [7] deals with T9, MPP5 PDZ (human, UniProt Q8N3R9 238-336).
T9 construct: PDZ domain of human MPP5 (PALS1), residues 238-336, numbering of the full-length human protein; […]; Labelled on amines with RED-NHS dye for MST; also called PALS1 PDZ; not shown: GST, N-terminal, cleaved
T9 sequence (looked up): T2 sequence (Q8N3R9 238-336)
The description is as above. To be noted: both partners purified.

The target of assay [8] is T10, LNX2 PDZ2 (human, UniProt Q8N448 334-426).
T10 construct: second PDZ domain of human LNX2, residues 334-426, numbering of the full-length human protein; […]; Labelled on amines with RED-NHS dye for MST; also called LNX2-2; not shown: His tag, N-terminal, cleaved
T10 sequence (looked up): T3 sequence (Q8N448 334-426)
Described as above. To be noted: both partners purified.

The mark [9] stands for this setting: Monolith NT.115, PDZ labeled RED-NHS, acetylated 12-mer peptide serially diluted, PBS tween 20 0.05%, room temperature, 80% LED, 20% MST power, MST time 30 s, averaged, ± standard deviation, two independent experiments.
Where [10] appears, read: either no interaction, or affinity outside the tested concentration range, read-out: Kd, outside the tested concentration range.

“Also recorded” adds a separate entry of the source. Like-named read-outs stand apart in the source and are kept apart here. No end group written: not given here. A value given as a limit tells only on which side of the number the result lay.

As to Ac-NLNSSRVLDLLV [SARS-CoV-2 P71L], the figures for the “Effect of P71L on affinity vs WT” value on ZO1 PDZ2 and on MPP5 PDZ [1] were “considerably reduces” and “does not significantly impact the affinity”, respectively. The “Change of Kd compared with SARS-CoV-2 WT” value on LNX2 PDZ2 [2] is reported as “almost six times lower”. Besides, the Kd result at PARD3 PDZ3 [3] (setting [9]) is “not detectable in the tested concentration range; also recorded: No interaction detected”; at PARD3 PDZ3 [3] (setting [10]), > 1000 µM; on MLLT4 PDZ [4] (setting [9]), “not detectable in the tested concentration range; also recorded: No interaction detected”; at MLLT4 PDZ [4] (setting [10]) it was > 1000 µM.

B1: C-terminal SARS-CoV-2-E PBM P71L peptide of the beta variant (peptide)
peptide: NLNSSRVLDLLV
notes: also called P71L PBM peptide; SARS-CoV-2 P71L
Consider B1, for which the Kd in the assay with PARD3 PDZ3 [5] is > 1000 µM; in the assay with MLLT4 PDZ [6], > 1000 µM; in the assay with ZO-1 PDZ2, 133 µM; in the assay with MPP5 PDZ [7], 22 µM; with LNX2 PDZ2 [8] it was 47 µM.
